Data on two compounds can be found in patent US10190168B2, “Method for predicting a treatment response to a CRHR1 antagonist and/or a V1B antagonist in a patient with depressive and/or anxiety symptoms” (MAX-PLANCK-GESELLSCHAFT ZUR FÖRDERUNG DER WISSENSCHAFTEN …, priority 2013, dated 2019).

The test system of assay [1] is control littermates (CL) of Cor26 CRH mice. In words: REMS levels (EEG/EMG sleep recording) in control littermates of the Cor26 CRH line. Particulars: 50 mg/kg/d via drinking water.
Experimental: (§1) Experiments were conducted with two different mouse lines of excessive central CRH secretion and their respective control littermates (CL). Mice of the CRH-COE^CNS line are characterised by CRH-overexpression within the whole CNS, whereas mice of the Cor26 CRH line display a CRH-overexpression specific to CRH-ergic neurons of the CNS. Three different CRHR1 antagonists were tested. […] In all cases, animals were left to recover from EEG/EMG-electrode implantation for two weeks, after which two days of baseline recording were initiated. Treatment with CRH-R1 antagonist or respective vehicle control commenced thereafter for five consecutive days. Antagonists were applied through the drinking water at a daily dose of 50 mg/kg body weight. EEG and EMG recordings were manually scored as wake, non-REMS (NREMS), and REMS in four second epochs by an experienced evaluator.
In another assay the test system is Cor26 CRH mice. The assay is described as follows: REMS levels (EEG/EMG sleep recording) in CRH-overexpressing Cor26 CRH mice. Particulars: 50 mg/kg/d via drinking water.
For assay [2], the system named is mice overexpressing CRH in the forebrain. The settings on record: Kimura et al., Mol. Psychiatry 2010; cited from earlier work.
In a further assay the test system is CRH-COE^CNS mice. In words: REMS activity (EEG/EMG sleep recording) in CRH-overexpressing CRH-COE^CNS mice. Particulars: 50 mg/kg/d via drinking water; for REMS activity: treatment days vs baseline, effect beginning with treatment day two.
The subject of assay [3] is control littermates (CL) of CRH-COE^CNS mice. In words: REMS activity (EEG/EMG sleep recording) in control littermates of the CRH-COE^CNS line. Particulars: 50 mg/kg/d via drinking water.
Experimental: as §1

For the compound `CCC(CC)Oc1cc(C)nc(Oc2c(C)cc(C)cc2C)c1C` [CP-316,311], the REMS levels entry in assay [1] is listed as “no significant effect”; with Cor26 CRH mice (50 mg/kg/day) it was “apparently seemed weak”; in the assay on Cor26 CRH mice (listed as CP-316311, 50 mg/kg/day), “suppressed”. In addition, in the assay on Cor26 CRH mice (baseline vs treatment day three, P=0.006), the “REMS levels, area under the curve (AUC) within the light period” value was “significant decrease”.
In the case of `COCC(COC)Nc1nc(C)nc2c(-c3ccc(Cl)cc3Cl)c(C)nn12` [DMP-696], the REM enhancement entry in assay [2] is “could reverse the REM enhancement”. The “REMS suppression relative to baseline REMS-levels of CL” value with CRH-COE^CNS mice is listed as “never exceeded baseline REMS-levels of CL”. In addition, the “treatment day of strongest suppression of REMS activity” value in the assay with CRH-COE^CNS mice is listed as “treatment day three”. Besides, the REMS activity entry is “significant decrease in REMS activity” in the assay on CRH-COE^CNS mice (50 mg/kg/day); “suppressed” with CRH-COE^CNS mice (listed as DMP696, 50 mg/kg/day); “only a mild suppression of REMS” in assay [3].
